Measured values reported in patent US8268854B2, “Aza-beta-carbolines and methods of using same” (The UWM Research Foundation, Inc., priority 2008, dated 2012).
Where a name gives a salt, the structure may show the parent alone.

Columns and labels:
Male P rats = assay: Animal model of excessive (binge) alcohol consumption, operant alcohol responding; format: in vivo, rat; conditions: N=5 per compound, oral gavage, lever press for alcohol, FIG. 13, FIG. 14
Experimental: Male P rats are used as subjects. All animals are individually housed in shoebox cages in a temperature- and humidity-controlled room on a 12 h:12 h light/dark cycle (lights on at 8:00 AM, off at 8:00 PM) with food and water available ad libitum. All behavioral training and testing take place between 8:00 AM and 10:00 AM. All procedures are conducted in accordance with the NIH Guide for the Care and Use of Laboratory Animals.
10% (v/v) EtOH and 3% (w/v) sucrose solutions are prepared using previously published procedures (Harvey et al. J. Neurosci. 2002, 22, 3765-3775; June et al. Neuropsychopharmacology 2003, 28, 2124-2137) with deionized water. The solutions are prepared daily. Compounds are administered by oral gavage (20-60 mg/kg) in all studies (e.g., alcohol responding, sucrose responding) as indicated in FIG. 12. The compounds are mixed in deionized water and administered by gavage in an injection volume of 1 mL/kg 25 min prior to the behavioral task. […]
Approximately 100 μL of whole blood is collected from a rat's tail tip into a heparin-coated microsample tube. […] The results are calculated in units of mg/dL and printed within 20 s of each trial as previously reported (Harvey et al., J. Neurosci. 2002, 22, 3765-3775; June et al. Neuropsychopharmacology 2003, 28, 2124-2137). […]

NET transporter = target: T1, NET transporter (Homo sapiens, UniProt P23975); assay: PDSP primary radioligand binding assay; conditions: compound 10 μM
T1 construct: expressed in transfected cells
T1 sequence (P23975 whole entry): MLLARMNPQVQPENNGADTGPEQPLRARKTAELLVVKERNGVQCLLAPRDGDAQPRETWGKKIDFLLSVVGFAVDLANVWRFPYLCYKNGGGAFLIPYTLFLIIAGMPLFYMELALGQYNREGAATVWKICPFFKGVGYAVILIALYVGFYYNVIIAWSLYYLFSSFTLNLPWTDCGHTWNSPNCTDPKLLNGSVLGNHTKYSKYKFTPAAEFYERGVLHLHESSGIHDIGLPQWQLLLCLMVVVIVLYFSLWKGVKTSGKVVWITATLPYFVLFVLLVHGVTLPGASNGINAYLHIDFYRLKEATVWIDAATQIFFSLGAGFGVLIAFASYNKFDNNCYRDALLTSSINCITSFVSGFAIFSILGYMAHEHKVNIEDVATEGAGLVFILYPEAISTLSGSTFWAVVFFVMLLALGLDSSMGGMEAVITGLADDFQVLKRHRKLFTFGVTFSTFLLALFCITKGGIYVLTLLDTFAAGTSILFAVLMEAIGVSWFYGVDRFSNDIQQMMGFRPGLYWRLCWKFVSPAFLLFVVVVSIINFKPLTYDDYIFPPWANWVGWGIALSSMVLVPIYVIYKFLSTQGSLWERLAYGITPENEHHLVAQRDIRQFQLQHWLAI
Experimental: Primary and secondary radioligand binding assays are performed. In general, the primary assay is run at very high ligand (compound) concentration as a broad screen to determine whether a compound binds to a particular receptor. If greater than 50% inhibition at 10 μM (high concentration of compound) at a particular receptor is determined, a secondary assay is performed on that receptor. Data from the secondary assay is the binding affinity (Ki value).
A solution of the compound to be tested is prepared as a 1 mg/ml stock in Standard Binding Buffer or dimethyl sulfoxide (DMSO) according to its solubility. A similar stock of a reference compound (positive control) is also prepared.
Radioligand (radioligands are presented in Table 39) is diluted to five times the assay concentration (assay concentrations are presented in Table 39) in Standard Binding Buffer. Typically, the assay concentration of radioligand is a value between one half the KD and the KD of a particular radioligand at its target. Aliquots (50 μL) of radioligand are dispensed into the wells of a 96-well plate (see FIG. 11) containing 100 μL of Standard Binding Buffer (Table 40). Then, duplicate 50 μL aliquots of the test and reference compound dilutions are added (see FIG. 11). According to FIG. 11, increasing concentrations (from left to right) of reference or test compound (diluted in buffer) are added (50 μL aliquots, in duplicate) from 5× stock solutions to wells containing 50 μL of 5× radioligand (fixed concentration, prepared in buffer) and 100 μL of buffer. Finally, 50 μL of receptor-containing membrane homogenate (5× suspension in buffer) are added to achieve a final assay volume of 250 μL. Final concentrations of reference or test compound are listed above the columns in FIG. 11.
Finally, crude membrane fractions of cells expressing recombinant target (prepared from 10 cm plates by harvesting phosphate buffered saline (PBS)-rinsed monolayers, resuspending and lysing in chilled, hypotonic 50 mM Tris-HCl, pH 7.4, centrifuging at 20,000×g, decanting the supernatant and storing at −80° C.; typically, one 10 cm plate provides sufficient material for 24 wells) are resuspended in 3 mL of chilled Standard Binding Buffer and homogenized by several passages through a 26 gauge needle, and then 50 μL are dispensed into each well.
The 250 μL reactions are incubated at room temperature and shielded from light (to prevent photolysis of light-sensitive ligands) for 1.5 hours, then harvested by rapid filtration onto Whatman GF/B glass fiber filters pre-soaked with 0.3% polyethyleneimine using a 96-well Brandel harvester. Four rapid 500 μL washes are performed with chilled Standard Binding Buffer to reduce non-specific binding. Filters are placed in 6 mL scintillation tubes and allowed to dry overnight. The next day, 4 mL of EcoScint scintillation cocktail (National Diagnostics) are added to each tube. The tubes are capped, labeled, and counted by liquid scintillation counting. For higher throughput assays, bound radioactivity is harvested onto 0.3% polyethyleneimine-treated, 96-well filter mats using a 96-well Filtermate harvester. The filter mats are dried, then scintillant is melted onto the filters, and the radioactivity retained on the filters is counted in a Microbeta scintillation counter.
Raw data (dpm) representing total radioligand binding (i.e., specific+non-specific binding) are plotted as a function of the logarithm of the molar concentration of the competitor (i.e., test or reference compound). […]

SMILES	effect on excessive alcohol consumption (Male P rats)	mean percentage inhibition, NET transporter (NET transporter; n=4, hydrochloride, 10 µM) [%]	inhibition at 10 µM (NET transporter; n=4, read-out: mean percentage inhibition, NET transporter) [%]
CCCOc1cc2c(cn1)[nH]c1ccncc12 [Compound 2, 8-Propoxypyridino[4′,3′-5,4]pyrrolo[3,2-c]pyridine hydrochloride]	Reduce Excessive Alcohol Consumption		
CCCOc1cc2c(cn1)[nH]c1cnccc12 [Compound 4, 3-Propoxy pyridino[4′,3′-4,5]pyrrolo[2,3-c]pyridine hydrochloride]	Reduce Excessive Alcohol Consumption	36.8	< 50
